In EP0755386B1, “BENZAMIDE DERIVATIVE, COMPOSITIONS CONTAINING SAID DERIVATIVE AND USE THEREOF” (Romark Laboratories, L.C., priority 1994, dated 1995):
≈ marks a conversion by molar mass, not a printed value. Read-outs that look alike come from different tables or passages of the source.

Key:
[1] = tested on: Trichomonas vaginalis; test: In vitro studies against Trichomonas vaginalis; type: cell-based; settings: for MIC: in vitro, Trichomonas vaginalis, read-out: Minimum Inhibitory Concentration
[2] = tested on: HBV; test: Antiviral activity against HBV replication in cultures of 2.2.15 cells; type: cell-based; settings: for selective index SI: HBV, CC 50/EC 50; for EC50: Hepatitis B virus, 216 h, read-out: effective concentration (EC 50)
Description: (§1) The protocol for essaying anti-HBV compounds in cultures of 2.2.15 cells can be briefly summarized as follows (Korba and Milman, 1991, Antiviral Res. 217:217) : • * Chronically HBV-producing human liver cells (Acs, et al, 1987, PNAS 84:4641) are seeded into 24 well tissue culture plates and grown to confluence. • * Test compounds are then added daily for a continuous 9 day period. Culture medium (changed daily during the treatment period) is collected and stored for analysis of extracellular (virion) HBV DNA after 0,3,6 and 9 days of treatment. • * Treated cells are lysed 24 hours following day 9 of treatment for the analysis of intracellular HBV genomic forms. • * HBV DNA is then analyzed in a quantitative and qualitative manner for overall levels of HBV DNA (both extracellular and intracellular DNA) and the relative rate of HBV replication (intracellular DNA). The protocol for determining toxicity of compounds in cultures of 2.2.15 cells can be briefly summarized as follows (Korba and Gerin, submited for publication) : • * 2.2.15 cells were grown to confluence in 96 well fat-bottomed tissue culture plates and treated with compounds (in 0.2 ml culture medium/well) as described above. Four concentrations of each compound were assayed, each in triplicate cultures, 3 to 10-fold steps. • * Untreated control cultures were maintained on each 96 well plate.

[3] = Toxicity in cultures of 2.2.15 cells, neutral red dye uptake; type: cell-based; settings: human, 50 % inhibit of cell proliferation, read-out: cytotoxic concentration (CC 50)
Description: as §1

[4] = tested on: Trichomonas vaginalis; test: Activity of aqueous compositions on protozoa; settings: aqueous composition (100 g) containing 10 g active agent
Description: (§2) Aqueous compositions (100 g) containing 10 g of an active agent have been prepared.

[5] = tested on: Trichomonas intestinalis; test: Activity of aqueous compositions on protozoa; settings: aqueous composition (100 g) containing 10 g active agent
Description: as §2

[6] = tested on: Encamoeba histolytica; test: Activity of aqueous compositions on protozoa; settings: aqueous composition (100 g) containing 10 g active agent
Description: as §2

[7] = tested on: Encamoeba dispar; test: Activity of aqueous compositions on protozoa; settings: aqueous composition (100 g) containing 10 g active agent
Description: as §2

[8] = tested on: Entamoeba coli; test: Activity of aqueous compositions on protozoa; settings: aqueous composition (100 g) containing 10 g active agent
Description: as §2

[9] = tested on: Endolimax nana; test: Activity of aqueous compositions on protozoa; settings: aqueous composition (100 g) containing 10 g active agent
Description: as §2

[10] = tested on: Balancidium coli; test: Activity of aqueous compositions on protozoa; settings: aqueous composition (100 g) containing 10 g active agent
Description: as §2

[11] = tested on: Diencamoeba fragilis; test: Activity of aqueous compositions on protozoa; settings: aqueous composition (100 g) containing 10 g active agent
Description: as §2

[12] = tested on: Giarda lamblia; test: Activity of aqueous compositions on protozoa; settings: aqueous composition (100 g) containing 10 g active agent
Description: as §2

[13] = tested on: Cryptosporidium parvum; test: Activity of aqueous compositions on protozoa; settings: aqueous composition (100 g) containing 10 g active agent
Description: as §2

[14] = tested on: Bladtocystis hominis; test: Activity of aqueous compositions on protozoa; settings: aqueous composition (100 g) containing 10 g active agent
Description: as §2

[15] = tested on: Enterocytozoon bieneusi; test: Activity of aqueous compositions on protozoa; settings: aqueous composition (100 g) containing 10 g active agent
Description: as §2

[16] = tested on: Septata intestinalis; test: Activity of aqueous compositions on protozoa; settings: aqueous composition (100 g) containing 10 g active agent
Description: as §2

[17] = tested on: Strongyloïdes stercoralis; test: Activity of aqueous compositions on helminths; settings: aqueous composition (100 g) containing 10 g active agent
Description: as §2

[18] = tested on: Taenia saginata; test: Activity of aqueous compositions on helminths; settings: aqueous composition (100 g) containing 10 g active agent
Description: as §2

[19] = tested on: Taenia solium; test: Activity of aqueous compositions on helminths; settings: aqueous composition (100 g) containing 10 g active agent
Description: as §2

[20] = tested on: Hymenolepis nana; test: Activity of aqueous compositions on helminths; settings: aqueous composition (100 g) containing 10 g active agent
Description: as §2

[21] = tested on: Staphylococcus aureus; test: Activity of aqueous compositions on aerobic bacteria; settings: aqueous composition (100 g) containing 10 g active agent
Description: as §2

[22] = tested on: Escherichia coli; test: as above; settings: aqueous composition (100 g) containing 10 g active agent
Description: as §2

[23] = tested on: Protens vulgaris; test: as above; settings: aqueous composition (100 g) containing 10 g active agent
Description: as §2

[24] = tested on: Bacceroides species; test: Activity of aqueous compositions on anaerobic bacteria; settings: aqueous composition (100 g) containing 10 g active agent
Description: as §2

[25] = tested on: Peptococcus species; test: as above; settings: aqueous composition (100 g) containing 10 g active agent
Description: as §2

[26] = tested on: Peptostreptococcus SPP; test: as above; settings: aqueous composition (100 g) containing 10 g active agent
Description: as §2

[27] = tested on: Fusobacterium SPP; test: as above; settings: aqueous composition (100 g) containing 10 g active agent
Description: as §2

[28] = tested on: Candida Albicans; test: Activity of aqueous compositions on fungus; settings: aqueous composition (100 g) containing 10 g active agent
Description: as §2

[29] = tested on: Clostridum species; test: Activity of aqueous compositions on anaerobic bacteria; settings: aqueous composition (100 g) containing 10 g active agent
Description: as §2

[30] = tested on: Isospora belli; test: Activity of aqueous compositions on protozoa; settings: aqueous composition (100 g) containing 10 g active agent
Description: as §2

[31] = tested on: Trychophyton Mentagrophytes; test: Activity of aqueous compositions on fungus; settings: aqueous composition (100 g) containing 10 g active agent
Description: as §2

[32] = tested on: Microsporum audovini; test: Activity of aqueous compositions on fungus; settings: aqueous composition (100 g) containing 10 g active agent
Description: as §2

[33] = tested on: Epidermophyton flocosum; test: Activity of aqueous compositions on fungus; settings: aqueous composition (100 g) containing 10 g active agent
Description: as §2

[34] = tested on: Enterobius vermicularis; test: Activity of aqueous compositions on helminths; settings: aqueous composition (100 g) containing 10 g active agent
Description: as §2

[35] = tested on: Ascaris lumbricoides; test: Activity of aqueous compositions on helminths; settings: aqueous composition (100 g) containing 10 g active agent
Description: as §2

[36] = tested on: Necator americanus; test: Activity of aqueous compositions on helminths; settings: aqueous composition (100 g) containing 10 g active agent
Description: as §2

[37] = tested on: Anycylosloma duodenale; test: Activity of aqueous compositions on helminths; settings: aqueous composition (100 g) containing 10 g active agent
Description: as §2

[38] = tested on: Trichuris trichiura; test: Activity of aqueous compositions on helminths; settings: aqueous composition (100 g) containing 10 g active agent
Description: as §2

Row | Structure (SMILES) | MIC [1] [µg/mL] | selective index SI [2] | CC50 at 9 days [3] [µg/mL] | ACTIVITY [4] | ACTIVITY [5] | ACTIVITY [6] | ACTIVITY [7] | ACTIVITY [8] | ACTIVITY [13] | ACTIVITY [14] | ACTIVITY [15] | ACTIVITY [16] | ACTIVITY [17] | ACTIVITY [18] | ACTIVITY [19] | ACTIVITY [20] | ACTIVITY [21] | ACTIVITY [22] | ACTIVITY [23] | ACTIVITY [28] | further results
1 | O=C(Nc1ncc([N+](=O)[O-])s1)c1ccccc1O [Compound A, 2-(hydroxy)-N-(5-nitro-2-thiazolyl) benzamide] | 1 to 1.25 (≈ 3.77 to 4.71 µM) | higher than 500 | > 1000 | – | – | – | – | – | – | – | – | – | – | – | – | – | – | – | – | – | onset of action ([1]; in vitro studies): substantially immediate action; EC50 [2]: 1.8 ± 0.1 µg/mL (≈ 6.79 µM)
2 | CC(=O)Oc1ccccc1C(=O)Nc1ncc([N+](=O)[O-])s1 [Compound B, 2-(acetolyloxy)-N-(5-nitro 2-thiazolyl) benzamide] | 0.5 to 1.25 (≈ 1.63 to 4.07 µM) | – | – | – | – | – | – | – | – | – | – | – | – | – | – | – | – | – | – | – | –
3 | CCCSc1ccc2nc(NC(=O)OC)[nH]c2c1 [Compound P3, Albendazole] | – | – | – | No | No | No | No | No | No | No | No | No | No | No | No | No | No | No | No | No | ACTIVITY [9]: No; ACTIVITY [10]: No; ACTIVITY [11]: No; ACTIVITY [12]: No; ACTIVITY [24]: No; ACTIVITY [25]: No; ACTIVITY [26]: No; ACTIVITY [27]: No; ACTIVITY [29]: No
4 | COC(=O)Nc1nc2ccc(C(=O)c3ccccc3)cc2[nH]1 [Compound P4, Mebendazole] | – | – | – | No | No | No | No | No | No | No | No | No | No | No | No | No | No | No | No | No | ACTIVITY [9]: No; ACTIVITY [10]: No; ACTIVITY [11]: No; ACTIVITY [12]: No; ACTIVITY [30]: No; ACTIVITY [24]: No; ACTIVITY [25]: No; ACTIVITY [26]: No; ACTIVITY [27]: No; ACTIVITY [31]: No; ACTIVITY [32]: No; ACTIVITY [33]: No; ACTIVITY [29]: No
5 | Cc1ncc([N+](=O)[O-])n1CCO [Compound P5, Metronidazole] | – | – | – | – | – | – | – | – | No | No | No | No | No | No | No | No | No | No | No | No | ACTIVITY [34]: No; ACTIVITY [35]: No; ACTIVITY [36]: No; ACTIVITY [37]: No; ACTIVITY [38]: No; ACTIVITY [31]: No; ACTIVITY [32]: No; ACTIVITY [33]: No
6 | Nc1ccn([C@H]2CC[C@@H](CO)O2)c(=O)n1 [Zalcitabine] | – | about 145 | 261 ± 24 (≈ 1240 µM) | – | – | – | – | – | – | – | – | – | – | – | – | – | – | – | – | – | EC50 ([2]; HBV replication in 2.2.15 cells, 9 day treatment): 1.8 ± 0.2 µg/mL (≈ 8.52 µM)
